Reference: PMC8957246, “Synthesis and diverse biological activity profile of triethylammonium isatin-3-hydrazones” (ADMET & DMPK, 2022)
Like-named read-outs stand apart in the source and are kept apart here. Marks after values point to notes of the source that are not given here.

Assays:
[1] = system: platelets (ADP-induced aggregation); experiment: Platelet aggregation (Born method), ADP-induced; type: cell-based; details: Homo sapiens, ADP 20 μg/mL, final concentration 2×10^–3 mol/L, median (25-75 percentiles), read-out: Platelets aggregation, % of control, ADP
Description: (§1) The in vitro experiments were performed using the blood of healthy male donors aged 18-24 years (total 54 donors). The study was approved by the Ethics Committee of Federal State Budgetary Educational Institution of Higher Education at the Bashkir State Medical University of the Ministry of Health of Russian Federation (No.2 dated 17.10.2012). Informed consent was obtained from all participants before blood sampling. The blood was collected from the cubital vein using the system of vacuum blood collection BD Vacutainer® (Becton, Dickinson and Company, USA). A 3.8 % sodium citrate solution in a 9:1 ratio was used as a venous blood stabiliser. The study of the effect on platelet aggregation was performed using the Born method using the aggregometer «AT-02» (SPC Medtech, Russia). The assessment of antiplatelet activity of the studied compounds and reference preparations was started with the final concentration of 2×10^–3 mol/L. Adenosine diphosphate (ADP; 20 μg/mL) and collagen (5 mg/mL) manufactured by Tehnologia-Standart Company, Russia, were used as inducers of aggregation. The study on the anticoagulant activity was performed by standard recognised clotting tests using the optical two-channel automatic analyser of blood coagulation Solar CGL 2110 (CJSC SOLAR, Belarus). The following parameters were studied: activated partial thromboplastin time (APTT), prothrombin time (PT) and fibrinogen concentrations according to the Clauss method. The determination of anticoagulant activity of the studied compounds and reference preparation was performed in a concentration of 5×10^–4 g/mL using the reagents manufactured by Tehnologia-Standart Company (Barnaul, Russia). The results of the study were processed using the statistical package Statistica 10.0 (StatSoft Inc, USA). The Shapiro–Wilk’s test was used to check the normality of actual data distribution. The form of distribution of the data obtained differed from the normal one; therefore, non-parametric methods were used for further analysis. The data were presented as medians and 25 and 75 percentiles. Analysis of variance was conducted using Kruskal–Wallis test. A p value of 0.05 was considered statistically significant.

[2] = system: activated partial thromboplastin time (intrinsic coagulation pathway); experiment: Anticoagulant activity, clotting test APTT; set-up: species or system human; details: for APTT, % of control: concentration 5×10^–4 g/mL, median (25-75 percentiles); for anticoagulant activity: APTT, p<0.05
Description: as §1

[3] = system: Micrococcus luteus B-109; experiment: Bactericidal activity, agar diffusion, M. luteus; type: cell-based; details: Micrococcus luteus, B109, 2 mM/L
Source text: Plant pathogenic bacterial strains Micrococcus luteus B-109, Pectobacterium atrosepticum 1043, Pectobacterium carotovorum subsp. carotovorum MI, Pseudomonas fluorescens EL-2.1, and Xanthomonas campestris B-610 and fungal strain Fusarium oxysporum IBPPM 543 were obtained from the specialized scientific culture collection of IBPPM RAS (WFCC no. 975, WDCM no. 1021) (CM IBPPM). Pathogenic fungus Phytophthora cactorum VKM F-985 provided by the All-Russian Collection of Microorganisms (VKM) and deposited at A.E. Favorsky Irkutsk Institute of Chemistry, SB RAS, was also used as test organism. Bacteria M. luteus, P. carotovorum subsp. carotovorum, P. atrosepticum, and Ps. fluorescens were grown in meat-peptone medium (BP), and X. campestris was grown in the medium with glucose, yeast extract, and calcium carbonate (GYCa). Solid media contained Bacto agar (18 g/L); pH was adjusted to 7.2-7.4. All bacterial cultures were grown at 28°C. The mycelial cultures of F. oxysporum and P. cactorum were grown on a glucose-peptone-yeast (GPY) nutrient medium at 27 °C. For inoculum preparation, both fungal strains were initially grown on the agar GPY in Petri dishes and then transferred into the seed medium by punching out 5 mm of the agar plate culture with a self-designed cutter.
Antibacterial and antifungal activities of the compounds were explored using the agar diffusion method and the technique of a phytopathogen radial growth inhibition. Method of diffusion in agar (measuring the diameter of growth inhibition zones) was used for determining the bactericidal activity. The 6-mm wells were made in ager medium (GYCa for Xanthomonas campestris or BP for other bacteria). Bacterial suspensions were distributed over the agar surface, and the tested compound's solution (150 μl) was added to each well. The width of growth inhibition zones around the wells was determined after incubation for 36-40 h.
The solutions of tested compounds were prepared with a concentration of 2 mmol/l (stock solution). For comparison, test compounds were also commonly applied disinfecting agents and antibiotics.

[4] = system: Bacillus cereus ATCC 10702 NCTC 8035; experiment: Antimicrobial activity, serial dilution (MIC/MBC), Bc; type: cell-based
Description: The antimicrobial activity of the test compounds was determined by the serial dilution technique in Muller Hinton Broth 2 and in Sabouradu broth for fungi. The cultures used for testing included Gram-positive bacteria: Staphylococcus aureus ATCC 6538P FDA 209P, Bacillus cereus ATCC 10702 NCTC 8035, Enterococcus faecalis ATCC 29212; Gram-negative bacteria: Escherichia coli ATCC 25922, Pseudomonas aeruginosa ATCC 9027, and fungi: Trichophyton mentagrophytes var. gypseum 1773, and Candida albicans ATCC 10231; methicillin-resistant strains of S. aureus (MRSA) was obtained from hospital patients with chronic tonsillitis in the Republican Clinical Hospital (Kazan, Russia). The bacterial load was 3.0 × 10^5 cfu/ml. The fungi load was 2.0 × 10^3 cfu/ml. The results were recorded every 24 h for 5-7 days. Cultures were incubated at 37 °C. The experiment was repeated three times. […] The minimum inhibitory concentration (MIC) was defined as the minimum concentration of a compound that inhibits the growth of the corresponding test microorganism. The growth of bacteria, as well as the absence of the growth due to the bacteriostatic action of compounds, were recorded.
Synthesized compounds were further evaluated for antimicrobial activity against test microorganisms: Staphylococcus aureus ATCC 209p (Sa), Bacillus cereus ATCC 8035 (Bc), Escherichia coli CDC F-50 (Ec), Enterococcus faecalis (Ef), Pseudomonas aeruginosa ATCC 9027, Aspergillus niger BKMF-1119, Trichophyton mentagrophytes var. gypseum 1773, and Candida albicans 855-653 including methicillin-resistant strains of S. aureus (MRSA 1 and MRSA 2). The minimum inhibitory (MIC) and minimum bactericidal (MBC) concentrations of ammonium salts were determined against these pathogens (Table 1). Due to the lack of activity of compounds 3a-g against Gram-negative bacterial strains and some fungi, the corresponding data are not shown.

[5] = 150 μl per well, 36-40 h, read-out: width of the inhibition zone
[6] = read-out: Inhibition zone width (mm), not less

Row | SMILES | MIC ([4]; Bacillus cereus, read-out: MIC) [µM] | MIC [4] [µM] | inhibition at 2000 µM [1] [%] | APTT, % of control [2] | zone of inhibition at 2000 µM [3, 5] [mm] | zone of inhibition at 2000 µM [3, 6] [mm] | MBC ([4]; Bacillus cereus) [µM] | anticoagulant activity [2] [%]
1 | CCc1cccc2c1N(Cc1cc(C(C)(C)C)c(O)c(C(C)(C)C)c1)C(=O)/C2=N\NC(=O)C[N+](CC)(CC)CC [Compound 3c, 2-(2-(1-(3,5-Di-tert-butyl-4-hydroxybenzyl)-7-ethyl-2-oxoindolin-3-ylidene)hydrazinyl)-N,N,N-triethyl-2-oxoethanammonium bromide] | ~25 | 24.8 ± 1.9 | 13.7 | +11.2 (7.9-13.1) ^*, ^† % of control | 10.5 | ≥ 10 | 99.3 | ≥ 10
2 | CC[N+](CC)(CC)CC(=O)N/N=C1\C(=O)N(Cc2cc(C(C)(C)C)c(O)c(C(C)(C)C)c2)c2c1ccc(C)c2C [Compound 3d, 2-(2-(1-(3,5-Di-tert-butyl-4-hydroxybenzyl)-6,7-dimethyl-2-oxoindolin-3-ylidene)hydrazinyl)-N,N,N-triethyl-2-oxoethanammonium bromide] | 49.6 ± 3.9 | – | 9 | +4.8 (3.7-6.9) ^‡ % of control | 8 | ≥ 8 | 198 | –
3 | CC[N+](CC)(CC)CC(=O)N/N=C1\C(=O)N(Cc2cc(C(C)(C)C)c(O)c(C(C)(C)C)c2)c2ccc([N+](=O)[O-])cc21 [Compound 3f, 2-(2-(1-(3,5-Di-tert-butyl-4-hydroxybenzyl)-5-nitro-2-oxoindolin-3-ylidene)hydrazinyl)-N,N,N-triethyl-2-oxoethanammonium bromide] | 397 ± 31.7 | – | 4.6 | +10.3 (8.5-12.7) ^*, ^† % of control | 10 | ≥ 10 | > 500 | ≥ 10

Now from value to compound, other results behind:

Row | MIC ([4]; Bacillus cereus, read-out: MIC) [µM] | MIC [4] [µM] | SMILES | inhibition at 2000 µM [1] [%] | APTT, % of control [2] | zone of inhibition at 2000 µM [3, 5] [mm] | zone of inhibition at 2000 µM [3, 6] [mm] | MBC ([4]; Bacillus cereus) [µM] | anticoagulant activity [2] [%]
4 | 52 ± 4.7 | – | CC[N+](CC)(CC)CC(=O)N/N=C1\C(=O)N(Cc2cc(C(C)(C)C)c(O)c(C(C)(C)C)c2)c2ccccc21 [Compound 3a, 2-(2-(1-(3,5-Di-tert-butyl-4-hydroxybenzyl)-2-oxoindolin-3-ylidene)hydrazinyl)-N,N,N-triethyl-2-oxoethanammonium bromide] | 10.5 | +5.2 (4.1-7.6) ^*, ^† % of control | 9 | ≥ 9 | > 500 | –
5 | 71 ± 6.2 | – | CC[N+](CC)(CC)CC(=O)N/N=C1\C(=O)N(Cc2cc(C(C)(C)C)c(O)c(C(C)(C)C)c2)c2cccc(Br)c21 [Compound 3e, 2-(2-(1-(3,5-Di-tert-butyl-4-hydroxybenzyl)-4-bromo-2-oxoindolin-3-ylidene)hydrazinyl)-N,N,N-triethyl-2-oxoethanammonium bromide] | 0.5 | +3.2 (2.8-5.4) ^‡ % of control | 13 | ≥ 13 | 284 | –
6 | 43.7 ± 3.5 | – | CC[N+](CC)(CC)CC(=O)N/N=C1\C(=O)N(Cc2cc(C(C)(C)C)c(O)c(C(C)(C)C)c2)c2c(Br)cc(Cl)cc21 [Compound 3g, 2-(2-(1-(3,5-Di-tert-butyl-4-hydroxybenzyl)-5-chloro-7-bromo-2-oxoindolin-3-ylidene)hydrazinyl)-N,N,N-triethyl-2-oxoethanammonium bromide] | 10.2 | +8.6 (6.1-10.9) ^*, ^† % of control | 7 | – | 87.4 | –
